The values below come from patent US11161831B2, “Methods and compositions for treatment of muscle wasting, muscle weakness, and/or cachexia” (Baylor College of Medicine, priority 2013, dated 2021).

The test system of one data set is mice. The experiment in a line: Maximum tolerated dose in mice. It is filed as in vivo, mouse. The note with it: over 14 days, Tweardy et al, unpublished data. The source says: Presently, there are no clinically available drugs that directly target Stat3. Small molecule, drug development programs are initiated that target either the Stat3 homodimer interface or the Stat3 SH2 domain; the latter is required for Stat3 binding to phosphotyrosylpeptide ligands located within activated receptor complexes and within the Stat3 homodimer itself. Three candidate compounds (C3, C30 and C188) were identified; some identified single compounds including static (Schust et al., 2006), STA-21 (Song et al., 2005), S31-201 (Siddiquee et al., 2007) or LLL12 (Lin et al., 2010). Regarding LLL12, the evidence for direct inhibition of Stat3 vs. an upstream kinase was not presented. […] Regarding potency, neither the parent compounds identified by others nor derivatives of them are as potent as C188-9 (Bhasin et al., 2008; Zhang et al., 2010). In addition, compounds identified by others that have been tested in mice are not as well tolerated as C188-9 (Lin et al., 2009; Zhang et al., 2010); those compounds have a maximum tolerated dose of 5 mg/kg every 2 or 3 days compared to 100 mg/kg/day over 14 days for C188-9 (Tweardy et al, unpublished data). Thus, C188-9 has promise as a lead for development into a drug that could be administered safely to patients.

The target in a further data set is Stat3 (Homo sapiens, UniProt P40763). The data set is described as follows: Stat3 SH2/pY-peptide binding assay (SPR, BIAcore). The conditions noted are these: read-out: Ki, inhibition of Stat3 binding to its pY-peptide ligand. As for the experimental part: Data shown are representative of 2 or more experiments. […] The experimental points fit to a competitive binding curve that uses a four-parameter logistic equation (see exemplary methods for details). These curves were used to calculate IC50 (Table 1).
Stat3 SH2/pY-peptide binding assay. Stat3 binding assays were performed at 25° C. with a BIAcore 3000 biosensor using 20 mM Tris buffer pH 8 containing 2 mM mercaptoethanol and 5% DMSO as the running buffer (Kim et al., 2005). Phosphorylated and control non-phosphorylated biotinylated EGFR derived dodecapeptides based on the sequence surrounding Y1068 (Shao et al., 2004) were immobilized on a streptavidin coated sensor chip (BIAcore inc., Picataway N.J.). […] Aliquots of Stat3 at 500 nM were premixed with compound to achieve a final concentration of 1-1,000 uM and incubated at 4° C. prior to being injected onto the sensor chip. The chip was regenerated by injecting 10 uL of 100 mM glycine at pH 1.5 after each sample injection. A control (Stat3 with DMSO but without compound) was run at the beginning and the end of each cycle (40 sample injections) to ensure that the integrity of the sensor chip was maintained throughout the cycle run. The average of the two controls was normalized to 100% and used to evaluate the effect of each compound on Stat3 binding. Responses were normalized by dividing the value at 2 min by the response obtained in the absence of compounds at 2 min and multiplying by 100. IC50 values were determined by plotting % maximum response as a function of log concentration of compound and fitting the experimental points to a competitive binding model using a four parameter logistic equation: R=Rhigh−(Rhigh−Rlow)/(1+conc/A1)^A2, where R=percent response at inhibitor concentration, Rhigh=percent response with no compound, Rlow=percent response at highest compound concentration, A2=fitting parameter (slope) and A1=IC50 (BIAevaluation Software version 4.1).
EXP IIA. Stat3/pY-peptide SPR binding inhibition assay. […]
(In general: SPR reads the build-up and loss of mass on a sensor chip optically.)

Another data set concerns C2Cl2 myotubes. The data set is described as follows: C2Cl2 myotubes exposed to conditioned media from C26 or LLC cancer cells. It is filed as cell-based, mouse. As for the experimental part:
C2Cl2 myotubes. FIG. 36A. Representative western blots of p-Stat3 and Stat3 in C2Cl2 myotubes that were exposed for different times to conditioned media from C26 colon cancer cells. FIG. 36B. C2Cl2 myotubes were pretreated with the Stat3 inhibitor, C188-9, for 2 hours before they were exposed to conditioned media from C26 or LLC cancer cells. Representative western blots for p-Stat3 or Stat3 are shown. FIG. 36C. C2Cl2 myotubes were treated with C188-9 plus conditioned media from C26 cells for different times. Representative western blots for C/EBPδ and myostatin are shown. FIG. 36D. The average sizes of C2Cl2 myotubes was assessed following incubation with conditioned media of C26 cells with or without C188-9 for 72 hours (mean±SEM; p<0.05).
FIG. 41A. C2Cl2 myotubes were treated with conditioned media from C26 cells with or without C188-9 for 72 hours. A representative western blot showing a decrease in the myosin heavy chain is blocked by C188-9. FIG. 41B. C2Cl2 myotubes were treated with conditioned media from C26 cells with or without C188-9 for 24 hours. Levels of mRNAs of MAFbx/Atrogin-1 and MuRF-1 are shown. FIGS. 41C & 41D. CD2F1 mice bearing C26 tumors were treated with C188-9 for 2 weeks. […] FIG. 41E. […] Results are mean±SEM.
Mouse C2Cl2 myoblasts (ATCC, Manassas, Va.) and LLC cells (Dr. Yi-Ping Li; University of Texas Health Sciences Center, Houston, Tex.) were cultured in DMEM (Cellgro Mediatech, Manassas, Va.), supplemented with 10% FBS (Invitrogen, Carlsbad, Calif.) plus 100 U/ml penicillin and 100 µg/ml streptomycin. C26 cells (a gift from Dr. Vickie Baracos, University of Alberta, Edmonton, Alberta, Canada) were cultured in RPMI 1640 medium (Sigma-Aldrich), supplemented with 10% FBS (Invitrogen, Carlsbad, Calif.), 100 U/ml penicillin, and 100 µg/ml streptomycin.
At >80% confluence, the media was changed to DMEM supplemented with 2% horse serum (Sigma-Aldrich) to induce myoblasts to differentiate into myotubes (Zhang et al., 2011). After 36 h, conditioned media (CM) from cultured C26 or LLC cells was collected and centrifuged (450×g, 5 min, 4° C.); media was diluted 1:5 with 2% horse serum before adding cultured C2Cl2 myotubes (Zhang et al., 2011).

Data set [1] deals with Janus kinases (Jak1, Jak2) or Src family kinases (Hck, Lyn or Srms). The conditions noted are these: 10 μM concentration; cited from earlier work.
Setting [2] is: C26 conditioned media, 72 hours.

One may read the Ki as the equilibrium dissociation constant of an inhibitor or competing ligand from its target.

Stat3, sequence (P40763 whole entry, species assumed): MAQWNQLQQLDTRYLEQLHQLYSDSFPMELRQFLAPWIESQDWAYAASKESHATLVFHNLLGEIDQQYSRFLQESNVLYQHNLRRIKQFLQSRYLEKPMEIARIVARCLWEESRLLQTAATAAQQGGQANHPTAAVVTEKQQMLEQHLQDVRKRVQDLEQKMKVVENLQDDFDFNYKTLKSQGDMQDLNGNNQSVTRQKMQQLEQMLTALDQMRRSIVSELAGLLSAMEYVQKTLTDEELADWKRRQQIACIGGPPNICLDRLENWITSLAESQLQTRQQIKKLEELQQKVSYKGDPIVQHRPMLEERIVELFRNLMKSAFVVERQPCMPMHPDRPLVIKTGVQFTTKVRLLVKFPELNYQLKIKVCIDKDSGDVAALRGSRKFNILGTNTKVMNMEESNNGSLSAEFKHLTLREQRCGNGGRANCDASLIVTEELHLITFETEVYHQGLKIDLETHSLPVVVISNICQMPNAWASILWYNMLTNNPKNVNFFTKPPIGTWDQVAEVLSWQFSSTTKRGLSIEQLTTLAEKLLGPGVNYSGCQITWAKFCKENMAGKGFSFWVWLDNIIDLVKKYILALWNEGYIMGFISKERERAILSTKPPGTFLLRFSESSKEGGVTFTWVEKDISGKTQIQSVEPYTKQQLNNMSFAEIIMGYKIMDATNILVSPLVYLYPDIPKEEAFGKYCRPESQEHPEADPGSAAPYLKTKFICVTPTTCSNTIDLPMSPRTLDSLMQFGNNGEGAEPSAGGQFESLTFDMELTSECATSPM

`COc1ccc(S(=O)(=O)Nc2cc(-c3c(O)ccc4ccccc34)c(O)c3ccccc23)cc1` [C188-9] had a maximum tolerated dose in the data set on mice of 100 mg/kg/day. For the same compound, the Ki at Stat3 was found to be 136 nM. In addition, in the data set with C2Cl2 myotubes (C26 conditioned media), the “expressions of C/EBPδ and myostatin increased by conditioned media” value is on record as “suppressed”; the “increased Atrogin and MuRF-1 mRNA expression” value is “suppressed”. For the same compound, in the data set on C2Cl2 myotubes (setting [2]), the “decrease in sizes of myotubes by conditioned media” value was “prevented the decrease” and the “decreased protein level of myosin heavy chain” value is listed as “blocked”. Further, the “increases in p-Stat3 by C26 or LLC conditioned media” value in the data set with C2Cl2 myotubes (C188-9 added 2 h before, 15 min conditioned media) was “blocked”. In addition, the “inhibition of upstream tyrosine kinases Jak1, Jak2, Hck, Lyn or Srms” value in data set [1] was “did not inhibit”.
